Data as given in patent publication US20230073449A1, “STROMA-FREE T CELL DIFFERENTIATION FROM HUMAN PLURIPOTENT STEM CELLS” (THE CHILDREN'S MEDICAL CENTER CORPORATION, priority 2020, published 2023).
“Also recorded” adds a separate entry of the source.

Assays:
5F cells (5F HSPCs) = experiment: Primary screen of Cayman epigenetic library in 5F cells, stromal-free T cell differentiation (proT readout); format: cell-based, human; details: for CD5+ CD7+ %: 5F cells, control cells 11.60%; for CD5+ CD7+ % / Z score: e.g., at 500 nM; for Z score: calculated from the number of T progenitors after treatment, Z score greater than 3 = primary hit; for proT cells generated from 5F HSPCs after treatment with primary hits (fold change / number): first screen, FIG. 8
Description: FIG. 6 is a schematic showing a primary screen for small molecule inhibitors of epigenetic factors that promote T cell specification, using the stromal-free T cell differentiation methods as described herein. “5F cells” refer to cells expressing 5 transcription factors (HOXA9, ERG, RORA, SOX4, and MYB). The Cayman epigenetic library contains more than 140 small molecules that are known to modulate the activity of a variety of epigenetic ‘writers and erasers’ and ‘reader’ proteins. It may include compounds that modulate the activity of methyltransferases, demethylases, histone acetyltransferases, histone deacetylases, and acetylated histone binding proteins; see e.g., caymanchem.com/product/11076/epigenetics-screening-library-(96-well).
FIG. 7 is a scatterplot showing identification of primary hits from the screen described in FIG. 6. Z scores were calculated for all the small molecules based on the number of T progenitors after treatment. Any small molecule with a Z score greater that 3 was considered as a primary hit. See e.g., Table 2.
FIG. 8 is a bar chart showing fold change of the proT cells generated from 5F HSPCs after treatment with primary hits identified in FIG. 7 (see e.g., Table 2).
(§1) A group of epigenetic regulators were tested for their ability to promote T cell differentiation. […] UNCO224 is an inhibitor of G9a/GLP, so a variety of other G9a/GLP inhibitors were tested.

[1] = test system: iPSC-derived CD34+ hemogenic endothelial (HE) cells; experiment: Second screen and dose response in wild type iPSC-derived CD34+ hemogenic endothelial (HE) cells, stromal-free T cell differentiation; format: cell-based, human; details: for proT cells generated from CD34+ HE cells after treatment with G9a inhibitors at different doses: FIG. 13B-13F; for Exemplary effective dose(s): promotion of T cell differentiation from CD34+ HE cells, 13B-13F
Protocol: FIG. 9 is a schematic showing a second screen using wild type iPSC-derived CD34+ hemogenic endothelial (HE) cells (not 5F HSPCs, e.g., as used in […] and Table 2), to test small molecule inhibitors of epigenetic factors for promotion of T cell differentiation.
FIG. 10A-10B is a series of graphs showing the results of the screen from FIG. 9. FIG. 10A is a scatterplot of Z scores, which were calculated for all the small molecules based on the number of T progenitors after treatment. Any small molecule with a Z score greater that 3 was considered as a primary hit. FIG. 10B is a bar graph showing verification of the primary hits. Primary hits were tested in triplicate.
FIG. 12A is a schematic summarizing the experiments (see e.g., FIG. 6-11, Table 2). FIG. 12B is a bar chart showing fold change of proT cells generated from CD34^+ HE cells after treated with UNCO224 at different doses.
FIG. 13A-13F is a series of schematics and graphs showing that G9 inhibitors promote T cell differentiation using the stromal-free differentiation methods as described herein. FIG. 13A is a schematic summarizing the experiments (see e.g., FIG. 6-12, Table 2). FIGS. 13B-13E are a bar charts showing fold change of proT cells generated from CD34^+ HE cells after treatment with other G9a inhibitors at different doses.
as §1

[2] = test system: class I HDAC (e.g., HDAC1, HDAC2, HDAC3); details: cited from earlier work
HDAC = details: pan-HDAC, with exception for HDAC6; cited from earlier work
[3] = target: class III isoenzyme SIRT1 (Homo sapiens, UniProt Q96EB6); details: cited from earlier work
Sequence of class III isoenzyme SIRT1 (Q96EB6 whole entry): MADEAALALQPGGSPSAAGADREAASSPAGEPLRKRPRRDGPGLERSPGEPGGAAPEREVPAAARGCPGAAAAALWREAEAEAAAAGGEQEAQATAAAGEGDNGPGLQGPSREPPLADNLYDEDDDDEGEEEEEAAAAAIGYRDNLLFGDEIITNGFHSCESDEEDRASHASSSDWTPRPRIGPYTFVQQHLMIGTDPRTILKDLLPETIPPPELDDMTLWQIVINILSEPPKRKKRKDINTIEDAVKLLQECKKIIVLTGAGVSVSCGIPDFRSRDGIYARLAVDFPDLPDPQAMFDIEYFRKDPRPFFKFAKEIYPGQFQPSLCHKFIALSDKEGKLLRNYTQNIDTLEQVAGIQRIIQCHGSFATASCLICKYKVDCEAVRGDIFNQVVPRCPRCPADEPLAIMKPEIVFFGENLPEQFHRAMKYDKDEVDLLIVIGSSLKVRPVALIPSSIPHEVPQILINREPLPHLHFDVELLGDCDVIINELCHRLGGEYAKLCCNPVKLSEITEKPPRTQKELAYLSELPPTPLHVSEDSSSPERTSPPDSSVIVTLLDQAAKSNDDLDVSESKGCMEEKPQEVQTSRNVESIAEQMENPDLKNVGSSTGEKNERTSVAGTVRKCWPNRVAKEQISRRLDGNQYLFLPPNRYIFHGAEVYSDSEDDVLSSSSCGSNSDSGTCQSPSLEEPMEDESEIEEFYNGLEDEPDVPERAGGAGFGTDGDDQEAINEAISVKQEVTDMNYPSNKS

CD34+ CD45+ HSPC cells = experiment: T cell differentiation of CD34+ CD45+ HSPCs after UNC0224 treatment; format: cell-based, human
Protocol: (§2) FIG. 14A-14C is a series of schematics and graphs showing that UNCO224 enhances T cell commitment at expense of erythroid/myeloid potential. FIG. 14A is a schematic showing a test of whether UNCO224 specifically affects T cell differentiation. iPSC-derived CD34+ HE cells were treated with UNCO224 and differentiated into CD34+ CD45+ hematopoietic stem and progenitor cells (HSPC). These HSPCs were used to generate T cells, erythroid cells, and myeloid cells to determine their multipotency. FIG. 14B is a bar chart showing fold change of proT cells generated from CD34+ CD45+ HSPC cells after treatment with UNCO224 (500 nM). […] FIG. 14C is a bar chart showing number of different types of colonies generated from CD34+ CD45+ HSPCs in a colony-forming unit (CFU) assay. E, erythroid; M, macrophage; G, granulocyte; GM, granulocyte/macrophage; GEMM, granulocyte/erythroid/macrophage/megakaryocyte.
FIG. 15A-15C is a series of graphs showing that UNCO224 promotes T cell specification rather than cell proliferation. FIG. 14B is a bar chart showing fold change of proT cells generated from CD34+ CD45+ HSPC cells after treatment with UNCO224 (500 nM). […] FIG. 14B is a bar chart showing fold change of total cell numbers after 14 days of T cell differentiation of CD34+ CD45+ HSPCs treated with DMSO or UNCO224. […] FIG. 14C is a bar chart showing the percentage of proT cells generated from CD34+ CD45+ HSPCs treated with DMSO or UNCO224. […] N=3, **** P≤0.0001.
(§3) UNCO224 enhanced T cell commitment at expense of erythroid/myeloid potential. […] UNCO224 also promoted T cell specification rather than cell proliferation. […] Without wishing to be bound by theory, it is anticipated that H3K9 methylation mediates repression of lymphoid genes. As such, treatment with inhibitors of H3K9 methylation (see e.g., FIG. 6-16, Tables 2-3) promotes T cell differentiation, e.g., when using stromal-free T cell differentiation methods as described herein. Such H3K9 methylation inhibitors can be used in place of, or in combination with, inhibition of histone methyltransferases (e.g., EZH1 knockdown).

CD34+ CD45+ HSPCs = experiment: Colony-forming unit (CFU) assay of CD34+ CD45+ HSPCs; format: cell-based, human; details: FIG. 14C
Protocol: as §2
as §3, with “Such H3K9 methylation inhibitors can be used in place of, or in combination with, inhibition of histone methyltransferases (e.g., EZH1 knockdown).” left out

MDA-MB-231 cells = details: in MDA-MB-231 cells; cited from earlier work

O=C(CCCCCCC(=O)Nc1ccc(I)cc1)NO [4-iodo-SAHA]
CD5+ CD7+ % (5F cells (5F HSPCs)): 25.3%
Z score (5F cells (5F HSPCs)): 5.895

COc1cc2nc(N3CCCN(C)CC3)nc(NC3CCN(Cc4ccccc4)CC3)c2cc1OC [BIX01294]
proT cells generated from CD34+ HE cells after treatment with G9a inhibitors at different doses [1]: capable of promoting T cell differentiation; also recorded: significantly increased
Exemplary effective dose(s) ([1]; FIG. 12B): 200 nM

COC(=O)c1ccc2c(c1)nc(NC(=O)c1ccccc1)n2CCCc1ccccc1 [BRD4770]
proT cells generated from CD34+ HE cells after treatment with G9a inhibitors at different doses [1]: capable of promoting T cell differentiation; also recorded: significantly increased
Exemplary effective dose(s) ([1]; FIG. 12B): 200 nM

CN(C)c1ccc(C(=O)NCCCCCC(=O)NO)cc1 [CAY10398]
CD5+ CD7+ % (5F cells (5F HSPCs)): 36.9%
Z score (5F cells (5F HSPCs)): 4.181

COCCCn1c(N)c(C(=O)NC2CCCC2)c2nc3ccccc3nc21 [CAY10591]
CD5+ CD7+ % (5F cells (5F HSPCs)): 25.9%
Z score (5F cells (5F HSPCs)): 8.576
proT cells generated from 5F HSPCs after treatment with primary hits (fold change / number) (5F cells (5F HSPCs)): significantly increased; also recorded: confirmed to promote T cell specification

Cn1cc(/C=C/C(=O)c2cccc(F)c2)cc1/C=C/C(=O)NO [MC1568]
CD5+ CD7+ % (5F cells (5F HSPCs)): 14.0%
Z score (5F cells (5F HSPCs)): 5.829
proT cells generated from 5F HSPCs after treatment with primary hits (fold change / number) (5F cells (5F HSPCs)): significantly increased; also recorded: confirmed to promote T cell specification
inhibition of class I HDAC activity [2]: Class II HDAC (e.g., HDAC4 and HDAC5) inhibitor. Displays no inhibition of class I HDAC activity (e.g., HDAC1, HDAC2, HDAC3).

O=C(CCCCCCC(=O)Nc1cccnc1)NO [Pyroxamide]
CD5+ CD7+ % (5F cells (5F HSPCs)): 11.6%
Z score (5F cells (5F HSPCs)): 3.122

CNCc1ccc(-c2[nH]c3cc(F)cc4c3c2CCNC4=O)cc1 [Rucaparib]
CD5+ CD7+ % (5F cells (5F HSPCs)): 37.2%
Z score (5F cells (5F HSPCs)): 0.4679

O=C(CCCCCCC(=O)Nc1ccccc1)NO [SAHA, suberoylanilide hydroxamic acid]
CD5+ CD7+ % (5F cells (5F HSPCs)): 34.7%
Z score (5F cells (5F HSPCs)): 7.987

CCCCc1nc2cc(/C=C/C(=O)NO)ccc2n1CCN(CC)CC [SB939]
CD5+ CD7+ % (5F cells (5F HSPCs)): 39.4%
Z score (5F cells (5F HSPCs)): 5.042
IC50 (HDAC): 40 to 140 nM
activity against SIRT1 [3]: no activity

Cc1cc(Nc2ccc(NC(=O)c3ccc(Nc4ccnc5ccccc45)cc3)cc2)nc(N)n1 [SGI-1027]
CD5+ CD7+ % (5F cells (5F HSPCs)): 19.9%
Z score (5F cells (5F HSPCs)): 0.09357

O=C(CCCCCN1C(=O)c2cccc3cccc(c23)C1=O)NO [Scriptaid]
CD5+ CD7+ % (5F cells (5F HSPCs)): 19.7%
Z score (5F cells (5F HSPCs)): 3.857

COc1cc2c(NC3CCN(C)CC3)nc(N3CCCN(C)CC3)nc2cc1OCCCN(C)C [UNC0224]
CD5+ CD7+ % (5F cells (5F HSPCs)): 15.0%
Z score (5F cells (5F HSPCs)): 3.475
proT cells generated from 5F HSPCs after treatment with primary hits (fold change / number) (5F cells (5F HSPCs); listed as UNCO224): significantly increased; also recorded: confirmed to promote T cell specification
proT cells generated from CD34+ HE cells after treatment with G9a inhibitors at different doses [1]: capable of promoting T cell differentiation
fold change of proT cells generated from CD34+ HE cells at different doses ([1]; dose response, FIG. 12B): dose-dependent manner
proT cells generated from CD34+ HE cells (verification of primary hits) ([1]; second screen, primary hits tested in triplicate, FIG. 10B, listed as UNCO224): significantly increased; also recorded: significant increase
fold change of CD5+ CD7+ proT cells generated from CD34+ CD45+ HSPC cells (CD34+ CD45+ HSPC cells; UNC0224 500 nM vs DMSO, FIG. 14B/15A): significant increase
fold change of total cell numbers (CD34+ CD45+ HSPC cells; after 14 days of T cell differentiation, vs DMSO): significant decrease
percentage of CD5+ CD7+ proT cells (CD34+ CD45+ HSPC cells; vs DMSO, N=3): significant increase
number of erythroid or myeloid lineage colonies (CD34+ CD45+ HSPCs): significant decrease

COc1cc2c(NC3CCN(CC4CCCCC4)CC3)nc(N3CCCN(C(C)C)CC3)nc2cc1OCCCN1CCCCC1 [UNC0631]
IC50 (MDA-MB-231 cells): 25 nM

COc1cc2c(NC3CCN(C(C)C)CC3)nc(C3CCCCC3)nc2cc1OCCCN1CCCC1 [UNC0638]
proT cells generated from CD34+ HE cells after treatment with G9a inhibitors at different doses [1]: capable of promoting T cell differentiation; also recorded: significantly increased
Exemplary effective dose(s) ([1]; FIG. 12B): 8 nM

COc1cc2c(NC3CCN(C(C)C)CC3)nc(N3CCC(F)(F)CC3)nc2cc1OCCCN1CCCC1 [UNC0642]
proT cells generated from CD34+ HE cells after treatment with G9a inhibitors at different doses [1]: capable of promoting T cell differentiation; also recorded: significantly increased
Exemplary effective dose(s) ([1]; FIG. 12B): 40 nM

COc1cc2c(NC3CCN(C4CCCCC4)CC3)nc(N3CCCN(C(C)C)CC3)nc2cc1OCCCN1CCCCC1 [UNC0646]
IC50 (MDA-MB-231 cells): 26 nM

CC(C)C(C(=O)Nc1ccc(C(=O)NO)cc1)c1ccccc1 (stereo not shown) [s-HDAC-42]
CD5+ CD7+ % (5F cells (5F HSPCs)): 43.2%
Z score (5F cells (5F HSPCs)): 4.263

Oxamflatin [Oxaflatin]
CD5+ CD7+ % (5F cells (5F HSPCs)): 12.4%
Z score (5F cells (5F HSPCs)): 6.54
